According to patent publication US6391840B1, “Multiple component bleaching compositions” (Unilever Home & Personal Care USA, division of Conopco, Inc., priority 1999, dated 2002):
One block for each compound: values may come before it.

Experiments:
[1] = Stability tests of imine quat in the presence of hydrogen peroxide at various pH (1H NMR integral ratio; permanganate titration); type: physicochemical
Protocol: The stability of N-methyl-3,4 dihydroisoquinolinium tosylate in the presence of hydrogen peroxide was tested at various pH values. To this end samples were prepared containing 6.0% w/w hydrogen peroxide, 2.0% w/w of the imine quat and 0.01% w/w Dequest™ 2047 (ethylenediamine-tetra[methylene-phosphonic acid] sodium salt, a sequestrant marketed by Monsanto). This is equivalent to a partial composition which together with a second partial composition of the same volume would lead to a final composition with 3% hydrogen peroxide and 1% imine quat.
The pH of the samples was adjusted using 1.0M hydrochloric acid or 2.0M sodium hydroxide as required. During the test the pH of the samples was re-adjusted as indicated using 2.0M sodium hydroxide.
The hydrogen peroxide content was determined by titration against 0.02 M potassium permanganate. […] Complete reaction of 1 equivalent of hydrogen peroxide with 1 equivalent of imine quat would result in a decrease in hydrogen peroxide concentration of 0.2% w/w.
Imine quat stability was monitored using ^1H NMR spectroscopy, by comparing the ratio of the integrals of the iminium proton which appears at 8.85 ppm relative to TMS, with those for the aromatic protons on the inert tosylate counter-ion, which are observed at 7.65 ppm. Loss of imine quat (e.g. through reaction with hydrogen peroxide) is observed as a decrease in the iminium:tosylate integral ratio, and % of imine quat remaining is calculated as integral ratio after storage÷initial integral ratio.

[2] = tested on: black mould (Cladosporium cladosporoides), autoclaved mould paste; assay: Bleaching of autoclaved black mould paste on porous ceramic tiles, expert panel score 0-6
Protocol: Hydrogen peroxide solutions with and without imine quat (N-methyl-3,4-dihydroisoquinolinium tosylate) and at various pH values were tested on their ability to bleach black mould in comparison with sodium hypochlorite, which is the standard product used to clean black mould stains. The hydrogen peroxide solutions were all freshly prepared just before testing so as to mimic compositions obtained by mixing appropriate partial compositions on dispensing. In order to obtain reproducible results an autoclaved mould paste was used for the testing.
Cultures of hyphal Cladosporium cladosporoides were prepared on agar jelly. Warm water was used to dissolve the jelly and separate it from the mould hyphae, which were then autoclaved. […]
Small circular pieces of single ply tissue paper were cut to a convenient size and placed on the surface of the ‘mould tile’ test pieces, such that the edges of the test pieces remain uncovered. A fixed quantity of the test solution was allowed to drop onto the surface of the tissue and allowed to soak into the tile. […]
Test pieces were assessed for the level of mould bleaching by an expert panel, using a integer scale running from 0 (no decolorisation) to 6 (complete bleaching). Panel test data for each system was collated and analysed statistically to provide mean scores for each test system. […]

[3] = Bleaching of tea stained cotton cloth (reflectance); conditions: pH 10.0 or higher, vs 1% sodium hypochlorite pH 12
From the text: Tea stained cotton (BC-1) cloth is routinely used in the assessment of laundry bleaches. Here the method was adapted as an easy and readily reproducible indicator of the activity of the composition against a common hydrophilic household soil in comparison with a standard hypochlorite bleach.
Lengths of pre-stained BC-1 cotton cloth was cut into square swatches (2 cm×2 cm). For each composition four replicate cloths were placed in the bottom of a clean glass beaker and covered with the cleaning composition at room temperature. After the required contact time (generally 2 or 5 minutes) had elapsed, the cloths were removed from the cleaning solution using tweezers and immediately immersed in distilled water. The cloths were stirred in the water, and the washing procedure repeated twice more using fresh water each time. Washed cloths were then pressed between two filters to remove excess water and placed on fresh filter papers, in the dark, to dry.
Reflectance measurements were carried out on a Spectraflash 400 instrument. ΔR measurements were calculated using ‘40ptspec’ software, using a portion of untreated cloth from the same BC-1 cloth batch as a standard. Results obtained from each of the four replicate test cloths were then statistically analysed to obtain mean ΔR values for each bleach system.

[4] = Stability tests of imine quat in the presence of hydrogen peroxide at various pH (1H NMR integral ratio; permanganate titration); type: physicochemical; conditions: pH 8, without hydrogen peroxide, 2% imine quat, three days after preparation
[5] = target pH 5.5, 0 days storage, sample 6.0% H2O2 + 2.0% imine quat
[6] = target pH 5.5, 148 days storage
[7] = target pH 6.0, 148 days storage
[8] = target pH 6.5, 148 days storage
[9] = target pH 7.0, 148 days storage
[10] = target pH 7.5, 148 days storage

% hydrogen peroxide [1, 5]: 6.00% | % hydrogen peroxide [1, 6]: 5.99% | % hydrogen peroxide ([1]; target pH 6.0, 0 days storage): 6.00% | % hydrogen peroxide [1, 7]: 5.95% | % hydrogen peroxide ([1]; target pH 6.5, 0 days storage): 6.00% | % hydrogen peroxide [1, 8]: 5.89% | % hydrogen peroxide ([1]; target pH 7.0, 0 days storage): 6.00% | % hydrogen peroxide [1, 9]: 5.84% | % hydrogen peroxide ([1]; target pH 7.5, 0 days storage): 6.00% | % hydrogen peroxide [1, 10]: 5.69%
Structure (SMILES): OO [hydrogen peroxide, reference compound]
mould bleaching performance ([2]; pH 5.5): ineffective

Structure (SMILES): C[N+]1=Cc2ccccc2CC1.Cc1ccc(S(=O)(=O)[O-])cc1 [Imine Quat, N-methyl-3,4-dihydroisoquinolinium tosylate]
% of the original amount of imine quat still detectable ([1]; pH 8, in the presence of 6% hydrogen peroxide, 4 hours after preparation): 5% | imine quat detectable ([1]; pH 8, in the presence of 6% hydrogen peroxide, one day after preparation): no imine quat was detectable | % Imine Quat remaining [1, 5]: 100% | % Imine Quat remaining [1, 6]: 93% | % Imine Quat remaining ([1]; target pH 6.0, 0 days storage): 100% | % Imine Quat remaining [1, 7]: 83% | % Imine Quat remaining ([1]; target pH 6.5, 0 days storage): 100% | % Imine Quat remaining [1, 8]: 67% | % Imine Quat remaining ([1]; target pH 7.0, 0 days storage): 100% | % Imine Quat remaining [1, 9]: 43% | % Imine Quat remaining ([1]; target pH 7.5, 0 days storage): 100% | % Imine Quat remaining [1, 10]: 33% | effect of adding Imine Quat on mould bleaching over hydrogen peroxide ([2]; pH 10.5 and 11.0): significant improvement in performance | effect of adding Imine Quat on tea stain bleaching [3]: boosts the performance of hydrogen peroxide to values very close to those observed using hypochlorite | % of the original amount of imine quat remaining [4]: 5%
